This note sets out measurements from US20160318844A1, “PROSTACYCLIN COMPOUNDS, COMPOSITIONS AND METHODS OF USE THEREOF” (Insmed Incorporated, priority 2015, published 2016).

Where two headings read alike, the source gives them in different places.

A short description of data set [1]: Treprostinil alkyl ester conversion to treprostinil in rat lung tissue homogenate. In kind it is in vitro ADME. To be noted: 37° C., 200 nM, 10 mg/mL of protein. As for the experimental part:
(§1) Here, data were calculated based on fit of exponential increase to the maximum (experiments performed in duplicate). The results of this study are provided below in Table 2A and FIG. 37. […] In this experiment, treprostinil alkyl esters were incubated for 4 hours at a final concentration of 200 nM in 1 mL of tissue homogenate prepared in water and normalized to 10 mg/mL of protein.
(§2) C12-TR was incubated for 4 hours at a final concentration of 200 nM in 1 mL of tissue homogenate prepared in water and normalized to 10 mg/mL of protein. Both FIG. 37 experiments (eft and right graphs) were performed in duplicate and the lines represent nonlinear exponential regression assuming 1 phase decay. Table 2A. Rate of treprostinil alkyl ester conversion in the presence of rat, dog or monkey lung tissue homogenate.

A short description of data set [2]: Treprostinil alkyl ester conversion to treprostinil in dog lung tissue homogenate. Type of data set: in vitro ADME. To be noted: 37° C. As for the experimental part:
as §1, §2

For a further data set, the target named is T1, EP2 prostanoid receptor (Homo sapiens, UniProt P43116).
T1 construct: host or cells: CHO-K1
Nature of the data set: GloSensor cAMP assay in CHO-K1 cells co-transfected with the EP2 receptor. In kind it is cell-based. From the text:
cAMP is a second messenger involved in signal transduction of G-protein coupled receptors (GPCRs) acting through Gα-s and Gα-i proteins. Because the treprostinil receptor is a GPCR, the assay provides an indication of whether the respective prostacyclin compound (or metabolite thereof) binds its receptor and activates the GPCR cell signaling cascade. The GloSensorTM assay harnesses a genetically modified form of firefly luciferase into which a cAMP-binding protein moiety has been inserted. Upon binding of cAMP, a conformational change is induced leading to increased light output. The EP2 prostanoid receptor was cotransfected with the GioSensorm plasmid (Promega) into CHO-K cells as follows. CHO-K cells were harvested when the monoloayer was at 50-90% confluence. First, cells were washed with 5 mL PBS. […] The media was aspirated, and the cell pellet was resuspended in 10 mL of growth media. Cell number was determined using a hemacytometer. […] For small scale transfections of up to 20 wells, the pGLoSensor-22F cAMP plasmid (Promega, Cat #: E2301) (2 apg): […] Cat #: […] P2271) ratio was diluted to a final concentration of 12.6 ng/μL (total plasmid) in Opti-MEM I reduced-serum medium (Life Technologies, Cat #: 1985062). Next, 6 μL of FuGENE HD transfection reagent (Promega, Cat #: E2311) was added to 160 μL of diluted plasmid and mixed carefully by gentle pipetting. The complex was incubated at room temperature for 0 to 10 minutes, and then 8 μL of the complex was added per well of a 96 well white assay plate (Costar, Cat #: 3917) and gently mixed without disturbing the cell monolayer. […] Following incubation, cells were treated and analyzed. For larger scale transfections, the aforementioned steps were scaled up accordingly, and cells were frozen following the last incubation. In order to prepare frozen transfected CHO-K cells, the media was aspirated from culture flasks and cells were rinsed with 5 mL PBS. […] Cell number was determined using a hemacytometer. The media was aspirated, and the cell pellet was resuspended in freezing media (Millipore, cat #: S-002-SF) at 2.5×10^4 cells/vial. Transfected cells were incubated overnight at -80° C. before transfer to liquid nitrogen for long term storage. […] SH30071.03)). […] In preparation for cAMP measurement, the cells were equilibrated with the GloSensor cAMP reagent prior to treatment. For equilibration, the medium was carefully removed from the individual well. Next, 100 μL of equilibration medium ([…] of Glosensor Reagent stock solution (Promega, Cat #: E291), 10% FBS (Hydone, Cat #: SH30071.03) and 88% CO2 independent medium (Life Technologies, Cat #: 18045088)) was added per well of the 96-well plate, and added to the side of each well. The plate was then incubated for 2 hours at room temperature. A first pre-read measurement was taken using a microplate reader (MicroLumat Plus). Plates were incubated for an additional 10 minutes at room temperature, followed by a second pre-read measurement. […] Following treatment, each plate was read every 5 minutes for the duration of the assay using a microplate reader (MicroLumat Plus). In order to determine the fold change in cAMP relative to the control, the transfection efficiency was first determined by dividing the second pre-read measurement by the average of the corresponding pre-read measurements. Next, the normalized relative light units (RLUs) of the samples were determined by dividing the plate read measurement by the transfection efficiency. The fold change in cAMP relative to the control was then determined by dividing the normalized RLU of the samples by the normalized RLU of the control. The cAMP assay was validated using free treprostinil. […] Luminescence was then measured at room temperature. […] Nebulizer Aeroneb Pro (Aerogen) was used to nebulize treprostinil derivative compositions. Desired volume of the formulation (usually 3 mL) was loaded to the mesh head of the nebulizer. […]

The test system of another data set is NR8383 cells. In words: NR8383 cell proliferation assay. To be noted: for Effect on cell proliferation, NR8383 Cells: detectable cell inhibition: Table 9, unformulated alkyl esters, (0.195 μM-25 μM), 72 hour incubation. In kind it is cell-based, rat. As for the experimental part:
Rat alveolar NR8383 cells were harvested when the monolayer was 50-90% confluent (use passage 5-11). Because the NR8383 cells include both adherent and non-adherent cells, media was transferred to a 50 mL Falcon tube. To obtain the cells remaining in the flask, 2 mL of plain media was added, and the remaining cells were scraped out of the 75 cm^2 flask with a cell scraper and added to the 50 mL tube. […] SH30071.03)+1×Pen-Strep (Life Technologies, cat #: 15410-122)). Cell number was determined using a hemacytometer. […] Measurements and calculations were made as described above for the CHO-K1 cells. Rat alveolar NR8383 cells were challenged with the same treprostinil derivative compositions: […]

The next data set can be described thus: physchem. To be noted: organic solvent or mixture, thermodynamic from solid. As for the experimental part: Selected treprostinil derivatives were evaluated for the use in a metered dose inhaler (MDI).
5 mg of each treprostinil compound was added in a glass bottle. Specific amount of ethanol was added by weight. An MDI valve was crimped to each bottle, and HFA propellant added through the valve to the total volume of 5 mL. Compounds were allowed to dissolve for 24 hours at room temperature. The formulations were assessed visually for solubility. The goal was to estimate the minimum ethanol concentration required to solubilize each compound in propellant.
Soluble samples presented as clear and colorless solutions. […] Non-soluble samples had white precipitate or crystals formed. Ethanol was added as a solubility aid.

The mark [3] stands for this setting: 4.5 hr incubation time, read-out: EC50 (μM) 4.5 hr.
The mark [4] stands for this setting: 6.0 hr incubation time, read-out: EC50 (μM) 6.0 hr.
Where [5] appears, read: 8.0 hr incubation time, read-out: EC50 (μM) 8.0 hr.
The mark [6] stands for this setting: EC50 (μM) 0.5 hr, 0.5 hr incubation time.
Where [7] appears, read: EC50 (μM) 1.0 hr, 1.0 hr incubation time.
Setting [8] is: EC50 (μM) 2.0 hr, 2.0 hr incubation time.
Setting [9] is: EC50 (μM) 3.0 hr, 3.0 hr incubation time.
Where [10] appears, read: EC50 (μM) 4.0 hr, 4.0 hr incubation time.
[11] abbreviates: EC50 (μM) 5.0 hr, 5.0 hr incubation time.
Setting [12] is: EC50 (μM) 7.0 hr, 7.0 hr incubation time.

T1 sequence (P43116 whole entry): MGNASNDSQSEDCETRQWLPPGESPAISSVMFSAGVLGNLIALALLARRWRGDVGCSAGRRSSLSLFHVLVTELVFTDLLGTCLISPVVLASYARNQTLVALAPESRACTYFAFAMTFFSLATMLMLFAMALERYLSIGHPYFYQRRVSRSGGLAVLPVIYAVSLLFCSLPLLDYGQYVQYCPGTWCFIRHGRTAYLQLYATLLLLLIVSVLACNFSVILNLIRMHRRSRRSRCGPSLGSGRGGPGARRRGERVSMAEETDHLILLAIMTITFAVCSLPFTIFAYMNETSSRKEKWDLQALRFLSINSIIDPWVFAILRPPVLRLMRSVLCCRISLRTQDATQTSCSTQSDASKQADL

On to `CCCCCCCCOC(=O)COc1cccc2c1C[C@H]1C[C@@H](O)[C@H](CC[C@@H](O)CCCCC)[C@H]1C2` [Compound C8-TR, treprostinil octyl ester], for which the entries for the “Rate of treprostinil alkyl ester conversion” value in data set [1] and in data set [2] were 32.5 nmOL/h * g of protein and 49.8 nmOL/h * g of protein, respectively. The EC50 at EP2 prostanoid receptor (setting [3]) was 1.41 µM; at EP2 prostanoid receptor (setting [4]) it was 1.4 µM; at EP2 prostanoid receptor (setting [5]) it was 1.09 µM; on EP2 prostanoid receptor (setting [6]), 3.69 µM; at EP2 prostanoid receptor (setting [7]), 3.39 µM; on EP2 prostanoid receptor (setting [8]), 1.69 µM. The EC50 on EP2 prostanoid receptor (setting [9]) came to 1.42 µM; at EP2 prostanoid receptor (setting [10]), 1.53 µM; at EP2 prostanoid receptor (setting [11]), 1.4 µM; at EP2 prostanoid receptor (setting [12]) it was 1.34 µM. The “Effect on cell proliferation, NR8383 Cells: detectable cell inhibition” value in the data set on NR8383 cells is recorded as “Some detectable cell”. Besides, the “inhibition of NR8383 cell proliferation” value in the data set with NR8383 cells (unformulated alkyl esters, highest concentration, 72 hour) is on record as “showed some inhibition of cell proliferation”.
Consider `CCCCCCCCCCCCOC(=O)COc1cccc2c1C[C@H]1C[C@@H](O)[C@H](CC[C@@H](O)CCCCC)[C@H]1C2` [Compound C12-TR, dodecyl-treprostinil], for which the “Rate of treprostinil alkyl ester conversion” value in data set [1] is reported as 1.1 nmOL/h * g of protein; in data set [2] it was 2.2 nmOL/h * g of protein. The concentration for a half-maximal effect (EC50) worked out at 3.17 µM at EP2 prostanoid receptor (setting [3]); 3.25 µM at EP2 prostanoid receptor (setting [4]); 2.9 µM at EP2 prostanoid receptor (setting [5]); 4.98 µM on EP2 prostanoid receptor (setting [6]); 5.35 µM at EP2 prostanoid receptor (setting [7]); 4.54 µM on EP2 prostanoid receptor (setting [8]). Further, the concentration for a half-maximal effect (EC50) on EP2 prostanoid receptor (setting [9]) stood at 4.07 µM; on EP2 prostanoid receptor (setting [10]), 3.13 µM; on EP2 prostanoid receptor (setting [11]) it was 2.94 µM; at EP2 prostanoid receptor (setting [12]), 3.17 µM. In the data set on NR8383 cells, the “Effect on cell proliferation, NR8383 Cells: detectable cell inhibition” value is reported as “No detectable cell inhibition”. Also, the solubility at 24 h in the data set “physchem” (Solubility in HFA-134a with added ethanol) and in the data set “physchem” (Solubility in HFA-227 with added ethanol) was more than 1000 µg/mL in each case.
